In US20150218594A1, “CELL-FREE AND MINIMIZED METABOLIC REACTION CASCADES FOR THE PRODUCTION OF CHEMICALS” (CLARIANT PRODUKTE (DEUTSCHLAND) GMBH, priority 2012, published 2015):

Tests used:
[1] = 20° C.; cited from earlier work
[2] = test system: artificial enzyme cascade; assay: Solvent tolerance of the artificial enzyme cascade (glucose to ethanol with increasing isobutanol); format: biochemical
Experimental: A key characteristic of cell-free systems is their pronounced tolerance against higher alcohols.
All reactions were set up in 20 ml GC vials. Reaction mixtures contained 100 mM HEPES (pH 7 at 50° C.), 0.1 mM thiamine-pyrophosphate, 2.5 mM MgCl2, 25 mM D-glucose and 5 mM NAD. […] Reaction mixtures were placed in a water bath at 50° C. and gently stirred at 100 rpm.

[3] = test system: E. coli; conditions: recombinant fermentative production in E. coli; cited from earlier work
[4] = test system: microbial cells; conditions: cited from earlier work

Row | SMILES | restricted miscibility in water [1] | ethanol produced in the presence of 6% (v/v) isobutanol ([2]; 6% (v/v) isobutanol, in 8 h) | isobutanol concentration up to which cell-free ethanol productivity and reaction kinetics were not significantly affected ([2]; glucose to ethanol as in Example 1, 50° C.) | isobutanol titers that induce toxic effects in the microbial production host [3] | isobutanol concentration that results in loss of productivity of microbial cells [4]
1 | CCC(C)O (stereo not shown) [2-Butanol] | about 12% |  |  |  | 
2 | CC(C)CO [isobutanol] | 9-10% | 1.4 mM | up to 4 % (v/v) | 1-2 % (v/v) | ca. 1 % v/v
3 | CCCCO [n-Butanol] | 7-8% |  |  |  | 
